Source: US20140322250A1, “Peptides for the Treatment of Multiple Sclerosis and Related Diseases” (priority 2013, published 2014)
Where no end group is shown, it is not given here. [ ]: non-standard residue; d: D form.

Key:
[1] = 6.0 mg daily intranasal
Procedure: Their neurological examination confirmed increased deep tendon reflexes, spasticity of the lower limbs and pyramidal weakness of the legs. Therapy, consisting of 6.0 mg of Peptide T daily, was self-administered via 4 metered intranasal sprays, delivered three times daily.

[2] = biological target: CCR2 (Homo sapiens, UniProt P41597); assay type: cell-based; conditions: for inhibition of CCR2 (MCP-1) elicited chemotaxis: FIG. 4, 20 pM peptide 30 minutes prior, MCP-1 0.6 nM for 2 hours; for blocking CCL2 (MCP-1) chemotaxis: FIG. 3, tested at 10^−14 M
Text: Triplicate determinations were made and results are expressed as the mean plus or minus SEM. The experiment shown is a direct comparison among all RAPs. Statistical analysis was by unpaired t-test, with significance set at the p<0.01 (*) level for difference from CCL2 only chemotaxis.
Data are the average of 2 separate experiments, conducted with triplicate determinations. Data (chemotactic index) are presented as mean±SEM. The IC50 for inhibition of MCP-1 or MIP-1β was generated by a nonlinear inhibition curve fit in GraphPad Prism software, version 5.0. […] Data are presented as mean±SEM. *P<0.05, **P<0.01 vs RAP-103 untreated.
Triplicate determinations were performed and results are expressed as the mean plus or minus SEM. The experiment shown is a direct comparison among all RAPs. Statistical analysis was by unpaired t-test, with significance set at the p<0.01 (*) level for difference from CCL2 only chemotaxis.
A representative experiment is shown comprising triplicate determinations and is presented as relative fluorescence units, Mean±SEM.

[3] = test system: β-Integrin-mediated adhesion to human fibronectin; assay: MCP-1 elicited adhesion of human monocytes to human fibronectin; assay type: cell-based; conditions: FIG. 5, 10 minutes pretreatment
Procedure: Human monocytes were treated with the indicated doses of all-D-(IDNYT) for 10 minutes prior to adherence to the β-integrin human fibronectin. Data is the average of two separate experiments, conducted with triplicate determinations. Data are presented as Mean±SEM of the normalized adherence response from two experiments. The IC50 for inhibition of MCP-1 stimulated adherence was generated using a nonlinear inhibition curve fit in GraphPad Prism Version 5.0.

[4] = Pharmacokinetic study, plasma concentration by LC-MS/MS; assay type: in vivo, male Sprague Dawley rat
Procedure: A pharmacokinetic study of all-D-TTNYT (SEQ ID NO:2) (RAP-103) following intravenous and oral administration was conducted at a target dose level of 1 mg/kg in the male Sprague Dawley rat. The concentration of RAP-103 in each plasma and brain sample was measured using a suitable LC-MS/MS assay. The assay used was a research grade assay (RGA-1) which was established by assessing the accuracy, precision and the linearity of the method. Plasma concentrations generated were used to evaluate the pharmacokinetic parameters of all-D-TTNYT (SEQ ID NO:2) (RAP-103).
The dose formulation was administered intravenously to some animals as a slow bolus over ca 30 s via the tail vein and to a different group of animals orally via gastric gavage at a target dose volume of 1 mL/kg, to achieve a target dose level of 1 mg/kg. The dose volume administered was calculated according to the bodyweight of the animal on the day of dosing. The weight of administered dose was recorded. […] Results expressed as ng/mL

[5] = test system: response to bradykinin; conditions: amounts up to 50,000 times the standard challenge of bradykinin; Stewart and Woolley 1965; cited from earlier work
[6] = biological target: TLR4 on human monocyte-derived immature dendritic cells (human, UniProt O00206 24-839); assay: cell-based or functional assay
Chain of TLR4 on human monocyte-derived immature dendritic cells (O00206 24-839): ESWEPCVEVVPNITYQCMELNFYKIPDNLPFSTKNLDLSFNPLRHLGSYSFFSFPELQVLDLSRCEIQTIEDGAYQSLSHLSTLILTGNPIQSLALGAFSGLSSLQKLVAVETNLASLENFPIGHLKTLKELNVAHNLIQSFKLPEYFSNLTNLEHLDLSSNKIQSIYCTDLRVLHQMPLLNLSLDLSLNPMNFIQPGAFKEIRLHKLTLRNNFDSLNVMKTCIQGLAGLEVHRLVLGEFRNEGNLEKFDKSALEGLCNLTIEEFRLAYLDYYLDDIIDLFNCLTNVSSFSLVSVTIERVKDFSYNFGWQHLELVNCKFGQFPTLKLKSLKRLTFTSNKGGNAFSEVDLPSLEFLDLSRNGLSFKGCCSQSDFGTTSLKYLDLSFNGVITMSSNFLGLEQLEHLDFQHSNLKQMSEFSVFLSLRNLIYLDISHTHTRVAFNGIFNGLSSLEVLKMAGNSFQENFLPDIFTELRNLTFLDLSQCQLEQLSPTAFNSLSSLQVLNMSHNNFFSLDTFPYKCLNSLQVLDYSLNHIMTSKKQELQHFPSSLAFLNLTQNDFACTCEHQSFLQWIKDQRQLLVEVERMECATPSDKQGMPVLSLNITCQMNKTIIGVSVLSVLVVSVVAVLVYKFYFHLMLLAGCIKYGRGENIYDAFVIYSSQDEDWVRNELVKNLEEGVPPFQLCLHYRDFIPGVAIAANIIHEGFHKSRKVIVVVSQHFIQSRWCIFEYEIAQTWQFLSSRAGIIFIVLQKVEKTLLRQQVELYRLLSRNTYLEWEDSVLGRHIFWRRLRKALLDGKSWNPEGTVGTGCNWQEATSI

Chain of CCR2 (P41597 whole entry): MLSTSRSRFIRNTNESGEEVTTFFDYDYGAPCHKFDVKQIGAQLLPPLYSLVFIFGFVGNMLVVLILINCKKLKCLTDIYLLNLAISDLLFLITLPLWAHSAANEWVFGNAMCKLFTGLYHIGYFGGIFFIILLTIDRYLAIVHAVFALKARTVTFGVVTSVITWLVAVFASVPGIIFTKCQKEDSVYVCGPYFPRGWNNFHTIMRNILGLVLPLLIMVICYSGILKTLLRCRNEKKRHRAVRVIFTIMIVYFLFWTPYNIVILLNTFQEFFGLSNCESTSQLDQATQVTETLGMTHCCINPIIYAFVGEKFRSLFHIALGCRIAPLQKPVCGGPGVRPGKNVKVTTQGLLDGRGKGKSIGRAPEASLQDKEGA

Molecule: ASTTTNYY [Peptide T]
- patient-reported change ([1]; after 2 weeks, continued to end of week 10): definite improvements
- time to walk 10 meters ([1]; end of week 10, 65 seconds initially, one patient): 15 s

Molecule: Ile-Asn-Asn-Tyr-Thr ([dI][dN][dN][dY][dT]) [IDNYT (SEQ ID NO:8)]
- inhibition of CCR2 (MCP-1) elicited chemotaxis [2]: potently block

Molecule: Glu-Thr-Trp-Tyr-Ser ([dE][dT][dW][dY][dS]) [ETWYS]
- inhibition of CCR2 (MCP-1) elicited chemotaxis [2]: potently block

Molecule: Ile-Asp-Asn-Tyr Thr ([dI][dD][dN][dY][dT]) [IDNYT (SEQ ID NO:6)]
- inhibition of CCR2 (MCP-1) elicited chemotaxis [2]: potently block
- blocking of MCP-1 elicited adhesion [3]: potently blocking

Molecule: C[C@H](O)[C@@H](N)C(=O)N[C@@H](C(=O)N[C@H](CC(N)=O)C(=O)N[C@H](Cc1ccc(O)cc1)C(=O)N[C@@H](C(=O)O)[C@H](C)O)[C@H](C)O [RAP-103, all-D-TTNYT]
- time of peak levels in plasma ([4]; 1 mg/kg, rat): 10 to 15 min
- concentration in plasma ([4]; intravenous 1 mg/kg, 0.5 h, individual animals): 561 ng/mL
- tolerability of dose administrations ([4]; intravenous and oral gavage, 1 mg/kg, rat): well tolerated
- level at 0.083 h ([4]; male, Sprague Dawley, rat, plasma, iv, 1 mg/kg, intravenous 1 mg/kg, 0.083 h, individual animals): 3050 ng/mL
- level at 0.167 h ([4]; male, Sprague Dawley, rat, plasma, iv, 1 mg/kg, intravenous 1 mg/kg, 0.167 h, individual animals): 2400 ng/mL
- level at 0.25 h ([4]; male, Sprague Dawley, rat, plasma, iv, 1 mg/kg, intravenous 1 mg/kg, 0.25 h, individual animals): 2050 ng/mL
- level at 0.5 h ([4]; male, Sprague Dawley, rat, plasma, iv, 1 mg/kg, intravenous 1 mg/kg, 0.5 h, individual animals): 558 ng/mL
- level at 1 h ([4]; male, Sprague Dawley, rat, plasma, iv, 1 mg/kg, intravenous 1 mg/kg, 1 h, individual animals): 405 ng/mL

Molecule: Ser-Ser-Thr-Tyr-Arg ([dS][dS][dT][dY][dR]) [SSTYR]
- blocking CCL2 (MCP-1) chemotaxis [2]: retain potency

Molecule: Asn-Thr-Arg-Tyr-Arg [NYRYR]
- inhibition of CCR2 (MCP-1) elicited chemotaxis [2]: potently block

Molecule: Asn-Thr-Ser-Tyr-Arg ([dN][dT][dS][dY][dR]) [NTSYR]
- blocking CCL2 (MCP-1) chemotaxis [2]: retain potency

Molecule: Thr-Thr-Ser-Tyr-Thr ([dT][dT][dS][dY][dT]) [TTSYT]
- blocking CCL2 (MCP-1) chemotaxis [2]: retain potency

Molecule: all-D-bradykinin
- inhibition of the response to bradykinin or bradykinin-like effect [5]: neither any inhibition of the response to bradykinin, or any bradykinin-like effect

Molecule: Asn-Thr-Ser-Tyr-Gly ([dN][dT][dS][dY]G) [NTSYG]
- inhibition of CCR2 (MCP-1) elicited chemotaxis [2]: potently block

Molecule: [dT][dT][dN][dY][dT] [all-D-TTNYT (RAP-103)]
- IC50 for inhibition of LPS (100 ng/mL) induced TNFα production in human monocyte-derived iDC (FIG. 6) [6]: ~0.1 pM
